Assays:
[1] = Radiochemical stability of 177Lu-labeled structures in 0.9% sodium chloride (radio-HPLC); assay type: physicochemical; conditions: for radiochemical purity after 168 h: 168 h in 0.9% sodium chloride at 37°C
Procedure: Lutetium (^177Lu) chloride was used as a radioligand. […] The radioactivity of samples was measured with a gamma counter ISOMED 2010 (PTW, Germany). Labeling of the peptides was conducted on a Gaia/Luna complex (Elysia-Raytest, Germany). […] The system was controlled by the Clarity programs (Clarity Software, Great Britain). The labeled peptides were purified from free lutetium with the help of single-use cartridges C18 (ABX, Germany), the GAIA complex was used according to the gel-filtration principle.

[2] = Chemical stability in 0.9% sodium chloride (HPLC chromatographic purity); assay type: physicochemical; conditions: target peak area as % of total peak area, M±SD
Procedure: The analysis of the synthesis and purity control of the commercial PSMA-617 (Huayi Isotopes, China) was performed using chromatographic system Shimadzu LC-20AD XR (Shimadzu, Japan), equipped with spectrophotometric detector SPD-20A, according to the principle of the reverse-phase chromatography with the help of Luna C18 column (Dr. Maisch, Germany) and gradient elution of acetonitrile (Criochrome, Russia) from 95 to 0% and deionized water from 0 to 100% for 40 min. Mass-spectrometric analysis was conducted on the basis of MALDI-TOF mass-spectrometry using MALDI-TOF MS system, series FLEX (Bruker Daltonics, Germany). The peptide was purified by means of a high-performance liquid chromatography system NGC Quest 10 (Bio-Rad, USA) using Bio-Gel P-4 sorbent on the Econo-Column 1×30 cm (Bio-Rad, USA).
Lutetium (^177Lu) chloride was used as a radioligand. […] The radioactivity of samples was measured with a gamma counter ISOMED 2010 (PTW, Germany). Labeling of the peptides was conducted on a Gaia/Luna complex (Elysia-Raytest, Germany). […] The system was controlled by the Clarity programs (Clarity Software, Great Britain). The labeled peptides were purified from free lutetium with the help of single-use cartridges C18 (ABX, Germany), the GAIA complex was used according to the gel-filtration principle. Radiochemical stability was evaluated using the same parameters after 24, 48, 96 and 168 h in 0.9% sodium chloride at 37°C. Chemical stability was similarly fixed in 0.9% sodium chloride as described above. Chromatographic purity was calculated as a percentage of the target substance peak area in relation to the total area of the peaks on the chromatogram taken as 100%.

CHO-K1 culture = test: Binding of 6-FAM-labeled peptides to cell culture, fluorescence microscopy; assay type: cell-based, Chinese hamster; conditions: 1 μmol/L, 3 h incubation, washed with cooled phosphate buffer, ImageJ, >300 cells, negative control culture
Procedure: A fluorescent dye 6-FAM in the form of amine (Lumiprob, Russia) was used for bonding analysis. The peptides were labeled according a standard manufacturer protocol: they were dissolved in 0.1 mol/L solution of NaHCO3, 6-FAM dye was then added to the solution and incubated for 30 min at room temperature in the dark. The peptides were purified from the dye excess using alcohol precipitation method. For purification, one part of the labeled peptide solution was mixed with nine parts of the 95% ethanol cooled at –20°C. Further, the peptides were incubated for 90 min at the same temperature (–20°C). […]
(§1) 24 h before the experiment, the cultures were seeded in 24-well plates at the concentration of 100,000/well (LnCap — 150,000/well) to achieve the exponential stage. […] After the incubation, the medium with unbonded peptides was removed, the plate wells were washed with a cooled phosphate buffer and the fluorescence signal was recorded using an optical system equipped with a Nikon Ti-S microscope, DS-Qi1MC camera, S Plan Fluor ELWD 20×0.45 objective lenses, 465-495/515-555 nm filter (Nikon, Japan), and a computer with NIS-elements 4.0 software package.
The quantitative analysis of images was performed with an ImageJ program. The fluorescence signal from more than 300 cells was analyzed for each peptide. […] The fluorescence signal without peptides was registered as a control. […]

LnCap culture = test: as above; assay type: cell-based, human; conditions: 1 μmol/L, 3 h incubation, washed with cooled phosphate buffer, ImageJ, >300 cells
Procedure: (§2) A fluorescent dye 6-FAM in the form of amine (Lumiprob, Russia) was used for bonding analysis. The peptides were labeled according a standard manufacturer protocol: they were dissolved in 0.1 mol/L solution of NaHCO3, 6-FAM dye was then added to the solution and incubated for 30 min at room temperature in the dark. The peptides were purified from the dye excess using alcohol precipitation method. For purification, one part of the labeled peptide solution was mixed with nine parts of the 95% ethanol cooled at –20°C. Further, the peptides were incubated for 90 min at the same temperature (–20°C). After incubation, the cooled solution was centrifuged for 15 min at 13,000 rpm in the Allegra centrifuge (Beckman Coulter, USA). After centrifugation, the supernatant, […], was removed and dried using a vacuum concentrator (Eppendorf, Germany).
(§3) The peptides were bound to the cell cultures such as HCT-116, LnCap, PC-3, CHO-K1. The HCT-116 (human colorectal carcinoma cell line) and CHO-K1 (an epithelial cell line derived from the Chinese hamster ovary) were obtained from the Russian collection of cell cultures of vertebrate. The LnCap (PSMA-positive adenocarcinoma of the human prostate gland) and PC-3 cultures (PSMA-negative adenocarcinoma of the human prostate obtained from the bone metastases) were kindly provided by the N.N. Blokhin National Medical Research Center of Oncology (Russia). […]
as §1
(§4) The quantitative analysis of images was performed with an ImageJ program. The fluorescence signal from more than 300 cells was analyzed for each peptide. The fluorescence intensity was calculated by the following formula: total cell fluorescence = integral density – (area of the selected cell × mean fluorescence of the background indicators) as described by Khokhlova et al.. Shortly it looks like as follows: to obtain a fluorescence signal of each selected cell in the ImageJ program, the integral density parameter is taken, after that, the fluorescence of the background, equal in area to the cell size, is subtracted from this parameter. The fluorescence signal without peptides was registered as a control. The data were presented in the relative units of fluorescence.

HCT-116 culture = test: as above; assay type: cell-based, human; conditions: 1 μmol/L, 3 h incubation, washed with cooled phosphate buffer, ImageJ, >300 cells
Procedure: as §2, §3, §1, §4

PC-3 culture = test: as above; assay type: cell-based, human; conditions: 1 μmol/L, 3 h incubation, washed with cooled phosphate buffer, ImageJ, >300 cells
Procedure: as §2, §3, §1, §4

SMILES	radiochemical purity after 24 h ([1]; 24 h in 0.9% sodium chloride at 37°C, radio-HPLC, M±SD)	radiochemical purity after 48 h ([1]; 48 h in 0.9% sodium chloride at 37°C, radio-HPLC, M±SD)	radiochemical purity after 168 h ([1]; radio-HPLC, M±SD)	radiochemical purity, initial ([1]; initial (after labeling and C18 cartridge purification), radio-HPLC with GABI detector, acetonitrile/water (0.01% TFA) gradient, M±SD)	chemical stability (chromatographic purity) after 24 h ([2]; 24 h in 0.9% sodium chloride, 37°C)	chemical stability (chromatographic purity) after 168 h ([2]; 168 h in 0.9% sodium chloride, 37°C)	chemical stability (chromatographic purity), initial ([2]; initial)	binding to CHO-K1 culture (fluorescence signal) (CHO-K1 culture)	labeling result retained (radiochromatogram, Figure 4) after 168 h ([1]; after 168 h, radiochromatogram)	binding to LnCap culture (fluorescence signal) (LnCap culture)	binding to LnCap culture (fluorescence signal) (LnCap culture; listed as PSMA- 617)	binding to HCT-116 culture (fluorescence signal) (HCT-116 culture)	binding to PC-3 culture (fluorescence signal) (PC-3 culture)
O=C([O-])CN1CCN(CC(=O)[O-])CCN(CC(=O)NCC2CCC(C(=O)N[C@@H](Cc3ccc4ccccc4c3)C(=O)NCCCC[C@H](NC(=O)N[C@@H](CCC(=O)O)C(=O)O)C(=O)O)CC2)CCN(CC(=O)[O-])CC1.[177Lu+3] (some centres unmarked) [Lu-PSMA-617]	39.6±4.1%	19.7±2.9%	9.2±0.7%	99.7±3.2%									
O=C(O)CC[C@H](NC(=O)N[C@@H](CCCCNC(=O)[C@H](Cc1ccc2ccccc2c1)NC(=O)[C@H]1CC[C@H](CNC(=O)CN2CCN(CC(=O)O)CCN(CC(=O)O)CCN(CC(=O)O)CC2)CC1)C(=O)O)C(=O)O [PSMA-617]			9.2±0.7%		80.6±6.7%	42.9±3.4%	99.1±2.6%	not bound	almost completely detached	high degree of attachment	is binding to the LnCap culture	not bound	not bound
